Consider 24 compounds from patent publication US20110105509A1 (Wyeth, LLC, priority 2009, published 2011).

One may read the IC50 as the concentration at which inhibition is half-maximal. A low value points to higher potency.

For the assay, the target named is T1, CRTH2 (Homo sapiens, UniProt Q9Y5Y4).
T1 construct: expressed in transfected cells; host or cells: CHO cells
T1 sequence (Q9Y5Y4 1-395): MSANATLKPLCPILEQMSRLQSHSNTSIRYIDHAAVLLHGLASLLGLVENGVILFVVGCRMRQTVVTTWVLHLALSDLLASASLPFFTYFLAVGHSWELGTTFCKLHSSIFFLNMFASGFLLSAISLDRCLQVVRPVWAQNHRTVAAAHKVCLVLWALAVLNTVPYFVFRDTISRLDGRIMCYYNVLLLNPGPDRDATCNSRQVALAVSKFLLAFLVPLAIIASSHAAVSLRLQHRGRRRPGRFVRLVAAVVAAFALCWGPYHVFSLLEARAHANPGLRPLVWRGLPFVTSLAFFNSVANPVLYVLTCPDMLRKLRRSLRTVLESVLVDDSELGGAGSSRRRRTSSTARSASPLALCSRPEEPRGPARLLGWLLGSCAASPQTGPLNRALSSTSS
Put plainly: FRET based competitive immunoassay (cAMP) in CRTH2 expressing CHO cells. Type of assay: cell-based. The settings on record: CRTH2 expressing CHO cells incubated with forskolin and PGD2; Eu3+ cryptate-labeled anti-cAMP and d2-labeled cAMP. On the procedure: FRET Assay: To evaluate potency compounds were tested in a FRET based competitive immunoassay in which CRTH2 expressing CHO cells were incubated in the presence of forskolin and PGD2 along with Eu3+ cryptate-labeled anti-cAMP and d2-labeled cAMP.
Compound `Cc1c(-c2nn(CCOc3ccccc3)c(=O)c3ccccc23)c2cc(F)ccc2n1CC(=O)O` [Example 222, 2-(5-fluoro-2-methyl-3-(4-oxo-3-(2-phenoxyethyl)-3,4-dihydrophthalazin-1-yl)-1H-indol-1-yl)acetic acid] registered an IC50 of 1 nM.

`Cc1nnc(Cn2nc(-c3c(C)n(CC(=O)O)c4ccc(Cl)cc34)c3ccccc3c2=O)[nH]1` [Example 259b, 2-(5-chloro-2-methyl-3-(3-((5-methyl-4H-1,2,4-triazol-3-yl)methyl)-4-oxo-3,4-dihydrophthalazin-1-yl)-1H-indol-1-yl)acetic acid] gave an IC50 of 26 nM.

`Cc1c(-c2ccc(=O)n(Cc3ccc(F)cc3F)c2)c2cc(Cl)ccc2n1CC(=O)O` [Example 274, 2-(5-chloro-3-(1-(2,4-difluorobenzyl)-6-oxo-1,6-dihydropyridin-3-yl)-2-methyl-1H-indol-1-yl)acetic acid] gave a 50% inhibitory concentration (IC50) of 3 nM.

For `Cc1c(-c2ccc(=O)n(Cc3ccc(F)cc3)c2)c2cc(Cl)ccc2n1CC(=O)O` [Example 289, 2-(5-chloro-3-(1-(4-fluorobenzyl)-6-oxo-1,6-dihydropyridin-3-yl)-2-methyl-1H-indol-1-yl)acetic acid], the IC50 stood at 6 nM.

The compound `Cc1c(-c2ccc(=O)n(Cc3ccccc3)n2)c2cc(Cl)cc(F)c2n1CC(=O)O` [Example 10, 2-(3-(1-Benzyl-6-oxo-1,6-dihydropyridazin-3-yl)-5-chloro-7-fluoro-2-methyl-1H-indol-1-yl)acetic acid] gave an IC50 of 106 nM.

For the compound `Cc1c(-c2ccc(=O)n(Cc3ccc(C(F)(F)F)cc3)n2)c2cc(Cl)ccc2n1CC(=O)O` [Example 213, 2-(5-chloro-2-methyl-3-(6-oxo-1-(4-(trifluoromethyl)benzyl)-1,6-dihydropyridazin-3-yl)-1H-indol-1-yl)acetic acid], the 50% inhibitory concentration (IC50) stood at 19 nM.

For `Cc1c(-c2nn(Cc3cc(F)c(F)cc3F)c(=O)c3ccccc23)c2cc(F)ccc2n1CC(=O)O` [Example 63, 2-(5-fluoro-2-methyl-3-(4-oxo-3-(2,4,5-trifluorobenzyl)-3,4-dihydro-phthalazin-1-yl)-1H-indol-1-yl)acetic acid], the half-maximal inhibitory concentration (IC50) was found to be 15 nM.

`Cc1c(Cc2ccc(=O)n(CC(C)(C)C)n2)c2cc(F)ccc2n1CC(=O)O` [Example 343, (3-{[1-(2,2-dimethylpropyl)-6-oxo-1,6-dihydropyridazin-3-yl]methyl}-5-fluoro-2-methyl-1H-indol-1-yl)acetic acid] registered an IC50 of 142 nM.

Regarding `Cc1c(-c2ccc(=O)n(Cc3ccccc3F)c2)c2cc(F)ccc2n1CC(=O)O` [Example 266, 2-(5-fluoro-3-(1-(2-fluorobenzyl)-6-oxo-1,6-dihydropyridin-3-yl)-2-methyl-1H-indol-1-yl)acetic acid], the concentration for half-maximal inhibition (IC50) turned out to be 9 nM.

The compound `Cc1c(Cc2ccc(=O)n(Cc3ccc(F)cc3F)c2)c2cc(F)ccc2n1CC(=O)O` [Example 20, 2-(3-((1-(2,4-Difluorobenzyl)-6-oxo-1,6-dihydropyridin-3-yl)methyl)-5-fluoro-2-methyl-1H-indol-1-yl)acetic acid] returned an IC50 of 5 nM.

With `Cc1c(-c2ccc(=O)n(Cc3cccc(F)c3F)c2)c2cc(F)ccc2n1[C@@H](C)C(=O)O` [Example 306a, (S)-2-(3-(1-(2,3-difluorobenzyl)-6-oxo-1,6-dihydropyridin-3-yl)-5-fluoro-2-methyl-1H-indol-1-yl)propanoic acid], the IC50 was greater than 2000 nM.

For `COc1ccc2c(c1)c(-c1ccc(=O)n(Cc3ccccc3)n1)c(C)n2CC(=O)O` [Example 18, 2-(3-(1-Benzyl-6-oxo-1,6-dihydropyridazin-3-yl)-5-methoxy-2-methyl-1H-indol-1-yl)acetic acid], the IC50 was found to be 192 nM.

The compound `Cc1c(-c2nn(Cc3nc4cc(F)ccc4s3)c(=O)c3ccccc23)c2cc(Cl)ccc2n1CC(=O)O` [Example 99, 2-(5-chloro-3-(3-((5-fluorobenzo[d]thiazol-2-yl)methyl)-4-oxo-3,4-dihydrophthalazin-1-yl)-2-methyl-1H-indol-1-yl)acetic acid] displayed a half-maximal inhibitory concentration (IC50) of 10 nM.

`Cc1c(Cc2ccc(=O)n(Cc3ccc(C(F)(F)F)cc3)n2)c2cc(Cl)ccc2n1CC(=O)O` [Example 81, 2-(5-Chloro-2-methyl-3-((6-oxo-1-(4-(trifluoromethyl)benzyl)-1,6-dihydropyridazin-3-yl)-methyl)-1H-indol-1-yl)acetic acid] registered an IC50 of 23 nM.

`Cc1c(Cc2ccc(=O)n(Cc3cc(F)c(F)cc3F)n2)c2cc(F)ccc2n1CC(=O)O` [Example 193, 2-(5-fluoro-2-methyl-3-((6-oxo-1-(2,4,5-trifluorobenzyl)-1,6-dihydro-pyridazin-3-yl)methyl)-1H-indol-1-yl)acetic acid]: the half-inhibitory concentration (IC50) is 8 nM.

`CC(C)=CCn1nc(-c2c(C)n(CC(=O)O)c3ccc(F)cc23)c2ccccc2c1=O` [Example 130, 2-(5-fluoro-2-methyl-3-(3-(3-methylbut-2-enyl)-4-oxo-3,4-dihydro-phthalazin-1-yl)-1H-indol-1-yl)acetic acid] gave a 50% inhibitory concentration (IC50) greater than 1000 nM.

In the case of `Cc1c(-c2ccc(=O)n(Cc3ccc(Cl)c(F)c3)n2)c2cc(Cl)ccc2n1CC(=O)O` [Example 8, 2-(5-Chloro-3-(1-(4-chloro-3-fluorobenzyl)-6-oxo-1,6-dihydropyridazin-3-yl)-2-methyl-1H-indol-1-yl)acetic acid], the half-maximal inhibitory concentration (IC50) was 5 nM.

For `Cc1c(-c2ccc(=O)n(Cc3ccc(F)cc3)n2)c2ccccc2n1CC(=O)O` [Example 189, 2-(3-(1-(4-fluorobenzyl)-6-oxo-1,6-dihydropyridazin-3-yl)-2-methyl-1H-indol-1-yl)acetic acid], the IC50 amounted to 45 nM.

Compound `Cc1c(-c2nn(CCc3ccccc3)c(=O)c3ccccc23)c2cc(F)ccc2n1CC(=O)O` [Example 226, 2-(5-fluoro-2-methyl-3-(4-oxo-3-phenethyl-3,4-dihydrophthalazin-1-yl)-1H-indol-1-yl)acetic acid] returned a 50% inhibitory concentration (IC50) of 2 nM.

In turn, `Cc1c(-c2nn(Cc3cccc(F)c3)c(=O)c3ccccc23)c2cc(F)ccc2n1CC(=O)O` [Example 329, {5-fluoro-3-[3-(3-fluorobenzyl)-4-oxo-3,4-dihydrophthalazin-1-yl]-2-methyl-1H-indol-1-yl}acetic acid] came in with an IC50 of 3 nM.

Compound `Cc1c(-c2cn(C(C)C)c(=O)c3ccccc23)c2cc(F)ccc2n1CC(=O)O` [Example 249, 2-(5-fluoro-3-(2-isopropyl-1-oxo-1,2-dihydroisoquinolin-4-yl)-2-methyl-1H-indol-1-yl)acetic acid] gave a concentration for half-maximal inhibition (IC50) of 5 nM.

On to `CCC(O)(CC)Cn1nc(-c2c(C)n(CC(=O)O)c3ccc(F)cc23)c2ccccc2c1=O` [Example 128, 2-(3-(3-(2-ethyl-2-hydroxybutyl)-4-oxo-3,4-dihydrophthalazin-1-yl)-5-fluoro-2-methyl-1H-indol-1-yl)acetic acid], for which the IC50 turned out to be 6 nM.

`Cc1c(-c2nn(Cc3nc4ccccc4s3)c(=O)c3ccccc23)c2cc(F)ccc2n1CC(=O)O` [Example 110, 2-(3-(3-(Benzo[d]thiazol-2-ylmethyl)-4-oxo-3,4-dihydrophthalazin-1-yl)-5-fluoro-2-methyl-1H-indol-1-yl)acetic acid] yielded an IC50 of 7 nM.

The compound `Cc1c(-c2nn(Cc3cccc(F)c3F)c(=O)c3ccccc23)c2cc(F)ccc2n1CC(=O)O` [Example 112, 2-(3-(3-(2,3-difluorobenzyl)-4-oxo-3,4-dihydrophthalazin-1-yl)-5-fluoro-2-methyl-1H-indol-1-yl)acetic acid] displayed an IC50 of 19 nM.
